Series [1] in a line: Diazepam solubility in excipients. Format: physicochemical. Particulars: diazepam (API) in the excipient. From the text:
Diazepam was applied in the buccal area (cheek) to diffuse through the oral mucosa and enter directly into the bloodstream. Solubility of diazepam was also studied using various excipients.
The following excipients have also been studied to improve solubility.

Series [2] in a line: Ex vivo permeation of epinephrine, Franz diffusion cell. The procedure: A franz diffusion cell is obtained and prepared.
If testing films, one can perform the following next steps: (1) weigh films, punch to match diffusion area (or smaller), reweigh, record pre- and post-punching weight; (2) wet a donor area with approximately 100 μL of phosphate buffer; (3) place film on a donor surface, top with 400 μL of phosphate buffer, and start timers.
The tissue is dermatomed to precise thickness. • 4. […] The media is selected to ensure sink conditions. • 5.

For series [3] the following is noted: FIG. 6A, 6B.
A short description of series [4]: Excipient properties (HLB, water solubility). Format: physicochemical. Particulars: of the excipient.

The structures appear in SMILES notation. Marks after values point to notes of the source that are not given here. Some results are limits rather than exact numbers.

As for `CCCCCCCC/C=C\CCCCCCCC(=O)O` [Oleic Acid], the “API Solubility mg/gm total mix” value in series [1] is under 50 mg/gm total mix.
For `OCc1ccccc1` [Benzyl Alcohol], the “API Solubility mg/gm total mix” value in series [1] is reported as 400 mg/gm total mix.
On to `CC(O)CO` (stereo not shown) [Propylene Glycol], for which the “API Solubility mg/gm total mix” value in series [1] is under 30 mg/gm total mix.
For the compound `CNC[C@H](O)c1ccc(O)c(O)c1` [Epinephrine Bitartrate], the “permeation as a function of concentration” value in series [2] was “increasing concentration resulted in increased permeation”. Besides, in series [2], the “permeation as a function of solution pH” value is listed as “pH 5 was slightly more favorable as compared to pH 3”. For the same compound, the average flux is 0 μg/cm2 * min in series [2] (30 min, 16 mg/mL); 0.2604 μg/cm2 * min in series [2] (45 min, 16 mg/mL); 0.3125 μg/cm2 * min in series [2] (60 min, 16 mg/mL); 0.6727 μg/cm2 * min in series [2] (120 min, 16 mg/mL); 1.076 μg/cm2 * min in series [2] (180 min, 16 mg/mL); 1.029 μg/cm2 * min in series [2] (240 min, 16 mg/mL). The average flux in series [2] (300 min, 16 mg/mL) was 1.25 μg/cm2 * min; in series [2] (360 min, 16 mg/mL), 1.385 μg/cm2 * min. The “Average Steady State Flux” value in series [2] (360 min, 4 mg/mL) worked out at 0.167 ug/cm2 * min; in series [2] (360 min, 8 mg/mL), 0.466 ug/cm2 * min; in series [2] (360 min, 16 mg/mL), 1.317 ug/cm2 * min; in series [2] (360 min, 100 mg/mL), 2.942 ug/cm2 * min.
Turning to `CNC[C@H](O)c1ccc(O)c(O)c1` [epinephrine], the “time after which amount leveled off” value in series [3] was “about 40 minutes”.
`CCCCCCCC/C=C\CCCCCCCC(=O)OCC(O)CO` (stereo not shown) [Glycerol Monooleate]: the “API Solubility mg/gm total mix” value in series [1] stood at 71 mg/gm total mix. Besides, in series [4], the HLB came to 1.
As to `CNC[C@H](O)c1ccc(O)c(O)c1` [Epinephrine Base], the “permeation, base solubilized in situ vs Epinephrine Bitartrate” value in series [2] (4.4 mg/mL base vs 8.00 mg/mL bitartrate) is on record as “no differences were found”. Besides, the “Average Steady State Flux” value in series [2] (conc 4.4 mg/mL, solubilized in situ) was found to be 0.512 ug/cm2 * min.

The values are drawn from patent US11273131B2, “Pharmaceutical compositions with enhanced permeation” (AQUESTIVE THERAPEUTICS, INC., priority 2016, dated 2022).
